pIC50: −log10 of the molar value. Where two headings read alike, the source gives them in different places.
Legend:
AKR1C3 = biological target: T1, AKR1C3 (Homo sapiens, UniProt P42330); conditions: for IC50 Ratio 1C2:1C3: selectivity, ratio of IC50 values AKR1C2 to AKR1C3
T1 sequence (P42330 1-323): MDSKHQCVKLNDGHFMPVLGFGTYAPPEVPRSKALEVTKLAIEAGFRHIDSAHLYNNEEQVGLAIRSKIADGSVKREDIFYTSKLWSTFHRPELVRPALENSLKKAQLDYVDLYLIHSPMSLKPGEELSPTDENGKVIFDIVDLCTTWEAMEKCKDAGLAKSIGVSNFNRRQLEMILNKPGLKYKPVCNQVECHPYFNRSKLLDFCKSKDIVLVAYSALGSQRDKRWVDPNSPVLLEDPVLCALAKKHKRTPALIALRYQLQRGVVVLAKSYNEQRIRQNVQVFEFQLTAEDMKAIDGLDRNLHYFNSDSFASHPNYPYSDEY

AKR1C2 = biological target: T2, AKR1C2 (Homo sapiens, UniProt P52895)
T2 sequence (P52895 1-323): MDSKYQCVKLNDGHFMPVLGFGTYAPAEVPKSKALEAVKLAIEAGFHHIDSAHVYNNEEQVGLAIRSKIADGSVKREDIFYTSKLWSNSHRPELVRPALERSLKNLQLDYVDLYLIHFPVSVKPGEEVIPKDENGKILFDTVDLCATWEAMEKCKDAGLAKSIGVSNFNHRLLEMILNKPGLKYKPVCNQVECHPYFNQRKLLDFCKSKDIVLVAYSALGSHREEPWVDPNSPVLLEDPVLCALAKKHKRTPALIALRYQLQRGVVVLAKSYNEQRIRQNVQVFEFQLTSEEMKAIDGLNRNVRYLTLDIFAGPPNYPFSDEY

[1] = read-out: 1C3 IC50, recombinant AKR1C3, S-tetralol 165 μM (= Km), NADP+
[2] = read-out: 1C2 IC50, recombinant AKR1C2, S-tetralol 15 μM (= Km), NADP+

Compound	decrease of the inhibitory selectivity (AKR1C3; in comparison to compound 8) [fold]	pIC50 (AKR1C3; [1])	IC50 Ratio 1C2:1C3 (AKR1C3)	pIC50 (AKR1C2; [2])	pIC50 (AKR1C3)	pIC50 (AKR1C2)	increase of the inhibitory selectivity (AKR1C3; in comparison to compound 8) [fold]	further decrease of inhibitory potency for AKR1C3 (AKR1C3; relative to compound 4) [fold]	further decrease of inhibitory potency for AKR1C2 (AKR1C2; relative to compound 4) [fold]
CC(C)=CCc1cc(/C=C/C(=O)OC(C)(C)C)ccc1OC(=O)CCc1ccccc1 [Compound 7, tert-butyl(2E)-3-[3-(3-methylbut-2-en-1-yl)-4-[(3-phenylpropanoyl)oxy]phenyl]prop-2-enoate]	–	–	0.3	–	3.22	3.82	–	–	–
O=C(O)/C=C/c1ccc(OC(=O)CCc2ccccc2)cc1 [Compound 8, (2E)-3-prop-2-enoic acid]	–	5.33	19	4.06	–	–	–	–	–
O=C(O)/C=C/c1cccc(OC(=O)CCc2ccccc2)c1 [Compound 9, (E)-3-(3-((3-phenylpropanoyl)oxy)phenyl)acrylic acid]	–	–	28	–	6.02	4.57	1.5	–	–
O=C(O)/C=C/c1ccc(O)cc1 [Compound 14, p-coumaric acid]	–	–	7	–	3.70	2.89	–	–	–
(2E)-3-(3,3-dimethyl-3,4-dihydro-2H-1-benzopyran-6-yl)prop-2-enoate [Compound 5]	–	4.68	1	4.85	–	–	–	2	2

The next lines start with the values.

decrease of the inhibitory selectivity (AKR1C3; in comparison to compound 8) [fold]	pIC50 (AKR1C3; [1])	IC50 Ratio 1C2:1C3 (AKR1C3)	pIC50 (AKR1C2; [2])	pIC50 (AKR1C3)	pIC50 (AKR1C2)	increase of the inhibitory selectivity (AKR1C3; in comparison to compound 8) [fold]	further decrease of inhibitory potency for AKR1C3 (AKR1C3; relative to compound 4) [fold]	further decrease of inhibitory potency for AKR1C2 (AKR1C2; relative to compound 4) [fold]	Compound
1.7	5.64	11	4.60	–	–	–	–	–	O=C(O)C=Cc1ccc(OC(=O)CCc2ccccc2)cc1 (mixture of isomers) [Compound 10, (Z/E)-3-(4-((3-phenylpropanoyl)oxy)phenyl)acrylic acid]
–	3.20	0.04	4.57	–	–	–	–	–	CC(C)(C)OC(=O)C=Cc1ccc(OC(=O)CCc2ccccc2)cc1 (mixture of isomers) [Compound 13, (Z/E)-tert-butyl 3-(4-(3-phenylpropanoyloxy)phenyl)acrylate]
–	–	20	–	5.20	3.90	–	–	–	O=C(O)/C=C/c1ccc(OC(=O)c2ccccc2)cc1 [Compound 11, (2E)-3-[4-(benzoyloxy)phenyl]prop-2-enoic acid]
–	–	1	–	4.17	4.06	–	–	–	O=C(O)/C=C/c1ccc(OC(=O)c2ccncc2)cc1 [Compound 12, (2E)-3-[4-(pyridine-4-carbonyloxy)phenyl]prop-2-enoic acid]
–	4.07	5	3.41	–	–	–	–	–	O=C(O)/C=C/c1cccc(O)c1 [Compound 15, m-coumaric acid]
–	4.68	20	3.38	–	–	–	–	–	COc1cc(/C=C/C(=O)O)ccc1O [Compound 16, ferulic acid]
